Test results: patent publication US20090047221A1 (NIPRI LIMITED, priority 2004, published 2009)

System: cancer cell line MDA-MB-468
Experiment: Combination index with known cancer drugs against proliferation (Calcusyn software)
Format: cell-based
Source text: A combination index of less than 0.1 indicates very strong synergy; a combination index of 0.1 to 0.3 indicates strong synergism; a combination index of 0.3 to 0.7 indicates synergism; a combination index of 0.7 to 0.85 indicates moderate synergism; a combination index of 0.85 to 0.9 indicates slight synergism and a combination index of 0.9 to 1.1 indicates only very slight synergism, said combination being close to merely additive.
The combination index may be calculated using calcusyn software.
Evidence of synergy was determined by calculation of the combination index using Calcusyn software.
The MTT assay was used initially to determine the anti-proliferative activity of the test compounds. In the MTT assay a yellow thiazolyl blue tetrazolium bromide salt (MTT) is reduced, in metabolically active cells, to form insoluble purple formazan crystals which are solubilised by the addition of dimethyl sulphoxide (DMSO). Absorbance readings can then be determined spectrophotometrically and a relationship established between control untreated cells and drug treated cells enabling the quantification of anti-proliferative changes as a result of drug treatment (Mosmann, 1983).
Wells containing medium only were used as blanks. Following the attachment period, cells were treated with appropriate drug concentrations (20 μl added per well). 40 mg/ml stock drug solutions, in DMSO, were stored at −20° C. and on the day of drug treatment working solutions of 4 mg/ml were prepared in medium which was further diluted to achieve final drug dilution volumes of 20 μl. Initial screening was determined over a concentration range of 1-200 μg/ml. For potent compounds the assay was repeated over a narrower concentration range to determine accurate IC50 values. Cells were exposed to drug for 96 h continual exposure (37° C., 5% CO2). Following the 96 h incubation, 50 μl MTT solution (1 g MTT/500 ml PBS) was added per well and the plates were further incubated for 4 h (37° C., 5% CO2). After incubation the MTT and medium was removed from the wells and 100 μl DMSO added per well. Plates were agitated on an orbital mixer platform (Stuart Scientific) for 10 minutes. Absorbance was measured at 570 nm on a Biotrak II (Amersham Bioscience) plate reader. IC50 values were calculated comparing control and drug treated cells.

CCCCC/C=C\C/C=C\C/C=C\CCCCCOC(=O)c1ccc2c(c1O)C(=O)OC(C)C2 (racemic) [ALM-43, γ-Linolenyl Ester]
Combination Index (Cisplatin 1 × 10^−2 mol/L, ALM compound 0.1 μg/ml): 0.063
Combination Index (Cisplatin 1 × 10^−2 mol/L, ALM compound 0.5 μg/ml): 0.003
Combination Index (Cisplatin 1 × 10^−2 mol/L, ALM compound 1.0 μg/ml): 0.007
Combination Index (Cisplatin 1 × 10^−2 mol/L, ALM compound 5.0 μg/ml): 0.038
Combination Index (Cisplatin 1 × 10^−3 mol/L, ALM compound 0.1 μg/ml): No
Combination Index (Cisplatin 1 × 10^−3 mol/L, ALM compound 0.5 μg/ml): No
Combination Index (Cisplatin 1 × 10^−3 mol/L, ALM compound 1.0 μg/ml): No
Combination Index (Cisplatin 1 × 10^−3 mol/L, ALM compound 5.0 μg/ml): No
Combination Index (Cisplatin 1 × 10^−4 mol/L, ALM compound 0.1 μg/ml): No
Combination Index (Cisplatin 1 × 10^−4 mol/L, ALM compound 0.5 μg/ml): No
Combination Index (Cisplatin 1 × 10^−4 mol/L, ALM compound 1.0 μg/ml): No
Combination Index (Cisplatin 1 × 10^−4 mol/L, ALM compound 5.0 μg/ml): No
Combination Index (Cisplatin 1 × 10^−5 mol/L, ALM compound 0.1 μg/ml): No
Combination Index (Cisplatin 1 × 10^−5 mol/L, ALM compound 0.5 μg/ml): No
Combination Index (Cisplatin 1 × 10^−5 mol/L, ALM compound 1.0 μg/ml): No
Combination Index (Cisplatin 1 × 10^−5 mol/L, ALM compound 5.0 μg/ml): No
Combination Index (Cisplatin 1 × 10^−6 mol/L, ALM compound 0.1 μg/ml): No
Combination Index (Cisplatin 1 × 10^−6 mol/L, ALM compound 0.5 μg/ml): No
Combination Index (Cisplatin 1 × 10^−6 mol/L, ALM compound 1.0 μg/ml): No
Combination Index (Cisplatin 1 × 10^−6 mol/L, ALM compound 5.0 μg/ml): No
Combination Index (Cisplatin 1 × 10^−7 mol/L, ALM compound 0.1 μg/ml): 0.636
Combination Index (Cisplatin 1 × 10^−7 mol/L, ALM compound 0.5 μg/ml): 0.612
Combination Index (Cisplatin 1 × 10^−7 mol/L, ALM compound 1.0 μg/ml): No
Combination Index (Cisplatin 1 × 10^−7 mol/L, ALM compound 5.0 μg/ml): No
Combination Index (Cisplatin 1 × 10^−8 mol/L, ALM compound 0.1 μg/ml): 0.199
Combination Index (Cisplatin 1 × 10^−8 mol/L, ALM compound 0.5 μg/ml): No
Combination Index (Cisplatin 1 × 10^−8 mol/L, ALM compound 1.0 μg/ml): No
Combination Index (Cisplatin 1 × 10^−8 mol/L, ALM compound 5.0 μg/ml): No
Combination Index (Cisplatin 1 × 10^−9 mol/L, ALM compound 0.1 μg/ml): 0.054
Combination Index (Cisplatin 1 × 10^−9 mol/L, ALM compound 0.5 μg/ml): 0.536
Combination Index (Cisplatin 1 × 10^−9 mol/L, ALM compound 1.0 μg/ml): No
Combination Index (Cisplatin 1 × 10^−9 mol/L, ALM compound 5.0 μg/ml): No
Combination Index (Doxorubicin 1 × 10^−4 mol/L, ALM compound 0.1 μg/ml): No
Combination Index (Doxorubicin 1 × 10^−4 mol/L, ALM compound 0.5 μg/ml): No
Combination Index (Doxorubicin 1 × 10^−4 mol/L, ALM compound 1.0 μg/ml): No
Combination Index (Doxorubicin 1 × 10^−4 mol/L, ALM compound 5.0 μg/ml): No
Combination Index (Doxorubicin 1 × 10^−5 mol/L, ALM compound 0.1 μg/ml): 0.385
Combination Index (Doxorubicin 1 × 10^−5 mol/L, ALM compound 0.5 μg/ml): 0.700
Combination Index (Doxorubicin 1 × 10^−5 mol/L, ALM compound 1.0 μg/ml): 0.278
Combination Index (Doxorubicin 1 × 10^−5 mol/L, ALM compound 5.0 μg/ml): 0.457
Combination Index (Etoposide 1 × 10^−4 mol/L, ALM compound 0.1 μg/ml): 0.399
Combination Index (Etoposide 1 × 10^−4 mol/L, ALM compound 0.5 μg/ml): 0.289
Combination Index (Etoposide 1 × 10^−4 mol/L, ALM compound 1.0 μg/ml): 0.418
Combination Index (Etoposide 1 × 10^−4 mol/L, ALM compound 5.0 μg/ml): 0.474
Combination Index (Etoposide 1 × 10^−5 mol/L, ALM compound 0.1 μg/ml): No
Combination Index (Etoposide 1 × 10^−5 mol/L, ALM compound 0.5 μg/ml): No
Combination Index (Etoposide 1 × 10^−5 mol/L, ALM compound 1.0 μg/ml): No
Combination Index (Etoposide 1 × 10^−5 mol/L, ALM compound 5.0 μg/ml): No
Combination Index (Etoposide 1 × 10^−6 mol/L, ALM compound 0.1 μg/ml): No
Combination Index (Etoposide 1 × 10^−6 mol/L, ALM compound 0.5 μg/ml): 0.865
Combination Index (Etoposide 1 × 10^−6 mol/L, ALM compound 1.0 μg/ml): No
Combination Index (Etoposide 1 × 10^−6 mol/L, ALM compound 5.0 μg/ml): No
Combination Index (Etoposide 1 × 10^−7 mol/L, ALM compound 0.1 μg/ml): 0.473
Combination Index (Etoposide 1 × 10^−7 mol/L, ALM compound 0.5 μg/ml): 0.305
Combination Index (Etoposide 1 × 10^−7 mol/L, ALM compound 1.0 μg/ml): No
Combination Index (Etoposide 1 × 10^−7 mol/L, ALM compound 5.0 μg/ml): No
Combination Index (Etoposide 1 × 10^−8 mol/L, ALM compound 0.1 μg/ml): 0.181
Combination Index (Etoposide 1 × 10^−8 mol/L, ALM compound 0.5 μg/ml): 0.137
Combination Index (Etoposide 1 × 10^−8 mol/L, ALM compound 1.0 μg/ml): No
Combination Index (Etoposide 1 × 10^−8 mol/L, ALM compound 5.0 μg/ml): No
Combination Index (Etoposide 1 × 10^−9 mol/L, ALM compound 0.1 μg/ml): 0.090
Combination Index (Etoposide 1 × 10^−9 mol/L, ALM compound 0.5 μg/ml): 0.319
Combination Index (Etoposide 1 × 10^−9 mol/L, ALM compound 1.0 μg/ml): No
Combination Index (Etoposide 1 × 10^−9 mol/L, ALM compound 5.0 μg/ml): No
Combination Index (Etoposide 1 × 10^−10 mol/L, ALM compound 0.1 μg/ml): 0.083
Combination Index (Etoposide 1 × 10^−10 mol/L, ALM compound 0.5 μg/ml): 0.515
Combination Index (Etoposide 1 × 10^−10 mol/L, ALM compound 1.0 μg/ml): No
Combination Index (Etoposide 1 × 10^−10 mol/L, ALM compound 5.0 μg/ml): No
Combination Index (Irinotecan 1 × 10^−3 mol/L, ALM compound 0.1 μg/ml): 0.088
Combination Index (Irinotecan 1 × 10^−3 mol/L, ALM compound 0.5 μg/ml): 0.230
Combination Index (Irinotecan 1 × 10^−3 mol/L, ALM compound 1.0 μg/ml): 0.438
Combination Index (Irinotecan 1 × 10^−3 mol/L, ALM compound 5.0 μg/ml): 0.307
Combination Index (Irinotecan 1 × 10^−4 mol/L, ALM compound 0.1 μg/ml): 0.019
Combination Index (Irinotecan 1 × 10^−4 mol/L, ALM compound 0.5 μg/ml): 0.005
Combination Index (Irinotecan 1 × 10^−4 mol/L, ALM compound 1.0 μg/ml): 0.040
Combination Index (Irinotecan 1 × 10^−4 mol/L, ALM compound 5.0 μg/ml): 0.113
Combination Index (Irinotecan 1 × 10^−5 mol/L, ALM compound 0.1 μg/ml): No
Combination Index (Irinotecan 1 × 10^−5 mol/L, ALM compound 0.5 μg/ml): No
Combination Index (Irinotecan 1 × 10^−5 mol/L, ALM compound 1.0 μg/ml): No
Combination Index (Irinotecan 1 × 10^−5 mol/L, ALM compound 5.0 μg/ml): No
Combination Index (Irinotecan 1 × 10^−6 mol/L, ALM compound 0.1 μg/ml): No
Combination Index (Irinotecan 1 × 10^−6 mol/L, ALM compound 0.5 μg/ml): No
Combination Index (Irinotecan 1 × 10^−6 mol/L, ALM compound 1.0 μg/ml): No
Combination Index (Irinotecan 1 × 10^−6 mol/L, ALM compound 5.0 μg/ml): No
Combination Index (Irinotecan 1 × 10^−7 mol/L, ALM compound 0.1 μg/ml): No
Combination Index (Irinotecan 1 × 10^−7 mol/L, ALM compound 0.5 μg/ml): No
Combination Index (Irinotecan 1 × 10^−7 mol/L, ALM compound 1.0 μg/ml): No
Combination Index (Irinotecan 1 × 10^−7 mol/L, ALM compound 5.0 μg/ml): No
Combination Index (Irinotecan 1 × 10^−8 mol/L, ALM compound 0.1 μg/ml): 0.514
Combination Index (Irinotecan 1 × 10^−8 mol/L, ALM compound 0.5 μg/ml): 0.233
Combination Index (Irinotecan 1 × 10^−8 mol/L, ALM compound 1.0 μg/ml): No
Combination Index (Irinotecan 1 × 10^−8 mol/L, ALM compound 5.0 μg/ml): No
Combination Index (Irinotecan 1 × 10^−9 mol/L, ALM compound 0.1 μg/ml): 0.701
Combination Index (Irinotecan 1 × 10^−9 mol/L, ALM compound 0.5 μg/ml): 0.628
Combination Index (Irinotecan 1 × 10^−9 mol/L, ALM compound 1.0 μg/ml): No
Combination Index (Irinotecan 1 × 10^−9 mol/L, ALM compound 5.0 μg/ml): No
Combination Index (Irinotecan 1 × 10^−11 mol/L, ALM compound 0.1 μg/ml): 0.172
Combination Index (Irinotecan 1 × 10^−11 mol/L, ALM compound 0.5 μg/ml): 0.484
Combination Index (Irinotecan 1 × 10^−11 mol/L, ALM compound 1.0 μg/ml): No
Combination Index (Irinotecan 1 × 10^−11 mol/L, ALM compound 5.0 μg/ml): No
